The assay has as its target T1, Tyrosine-protein phosphatase non-receptor type 1 (Homo sapiens, UniProt P18031).
T1 sequence (P18031 whole entry): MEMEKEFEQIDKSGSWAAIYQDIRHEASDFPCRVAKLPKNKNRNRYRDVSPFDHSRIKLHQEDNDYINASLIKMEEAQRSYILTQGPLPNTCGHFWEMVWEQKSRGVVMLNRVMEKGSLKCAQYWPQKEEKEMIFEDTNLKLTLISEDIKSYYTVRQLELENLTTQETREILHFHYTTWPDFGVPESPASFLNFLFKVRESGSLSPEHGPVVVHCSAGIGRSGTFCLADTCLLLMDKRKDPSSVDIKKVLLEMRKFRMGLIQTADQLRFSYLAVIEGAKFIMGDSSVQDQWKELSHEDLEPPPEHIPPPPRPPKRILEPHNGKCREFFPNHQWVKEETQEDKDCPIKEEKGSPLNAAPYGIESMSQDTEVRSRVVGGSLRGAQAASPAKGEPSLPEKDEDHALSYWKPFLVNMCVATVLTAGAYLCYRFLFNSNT
Kind of assay: In Vitro PTP1B Inhibition Assay. The procedure: 10 mM stock solution (in assay buffer containing 1% DMSO) of the test compounds were prepared. Taking suitable aliquots from this stock solution, five different concentrations were made by dilutions. […] A 96 well microtiter plate was used for carrying out the assay using 10 mM DMSO as control. The reaction was carried out in 96 well, flatbottomed microtiter plates at 10 mM concentration using DMSO as control.

By IC50 is commonly meant the point on the concentration scale where inhibition reaches its midpoint. Low values mean higher potency, high ones lower potency. `COc1cc(/C=C2\SC(=O)NC2=O)ccc1OS(=O)(=O)Cc1ccccc1` [(Z)-4-((2,4-dioxothiazolidin-5-ylidene)methyl)-2-methoxyphenyl phenylmethanesulfonate (20)] returned an IC50 of 59.9 µM. That is a double-digit micromolar value.
`COc1cc(/C=C2\SC(=O)NC2=O)ccc1OS(=O)(=O)c1c(C)cc(C)cc1C` [(Z)-4-((2,4-dioxothiazolidin-5-ylidene)methyl)-2-methoxyphenyl-2,4,6-trimethylbenzenesulphonate (15)] gave an IC50 of 26.9 µM.
The result for `COc1cc(/C=C2\SC(=O)NC2=O)ccc1OS(=O)(=O)c1ccccc1[N+](=O)[O-]` [(Z)-4-((2,4-dioxothiazolidin-5-ylidene)methyl)-2-methoxyphenyl-2-nitrobenzenesulfonate (19)] reads 50.4 µM; that for `COc1cc(/C=C2\SC(=O)NC2=O)ccc1OS(=O)(=O)c1ccc(Br)cc1` [(Z)-4-((2,4-dioxothiazolidin-5-ylidene)methyl)-2-methoxyphenyl-4-bromobenzenesulfonate (18)], 21.8 µM; that for `COc1cc(/C=C2\SC(=O)NC2=O)ccc1OS(=O)(=O)c1ccc(Cl)cc1` [(Z)-4-((2,4-dioxothiazolidin-5-ylidene)methyl)-2-methoxyphenyl-4-chlorobenzenesulfonate (17)], 25.3 µM.
Turning to `COc1ccc(S(=O)(=O)Oc2ccc(/C=C3\SC(=O)NC3=O)cc2OC)cc1` [(Z)-4-((2,4-dioxothiazolidin-5-ylidene)methyl)-2-methoxyphenyl-4-methoxybenzene sulfonate (14)], the IC50 is 28.2 µM.
`COc1cc(/C=C2\SC(=O)NC2=O)ccc1OS(=O)(=O)c1ccc(C)cc1` [(Z)-4-((2,4-dioxothiazolidin-5-ylidene)methyl)-2-methoxyphenyl-4-methylbenzenesulfonate (12)] displayed an IC50 of 19 µM.
In the case of `COc1cc(/C=C2\SC(=O)NC2=O)ccc1OS(=O)(=O)c1ccccc1` [(Z)-4-((2,4-dioxothiazolidin-5-ylidene)methyl)-2-methoxyphenylbenzenesulfonate (13)], the IC50 stood at 7.31 µM.
The value for `COc1cc(/C=C2\SC(=O)NC2=O)ccc1OS(C)(=O)=O` [(Z)-4-((2,4-dioxothiazolidin-5-ylidene)methyl)-2-methoxyphenylmethane sulfonate (16)] was 8.73 µM; that for `COc1cc(/C=C2\SC(=O)NC2=O)ccc1OS(=O)(=O)c1ccc2ccccc2c1` [(Z)-4-((2,4-dioxothiazolidin-5-ylidene)methyl)-2-methoxyphenylnaphthalene-2-sulfonate (21)] was 61.4 µM.
